This is an account of results in the NIST ThermoML archive (doi:10.1016/j.tca.2014.05.022).

Structures are written as SMILES. Where “and” joins values, the source holds several entries; their conditions need not be identical. Equal values may be shown once. ± gives the expanded uncertainty stated by the source.

The conditions of this data set: DTA; for Normal melting temperature: Crystal.

Take `CCCCCCCCCCCCCCCCO` [1-hexadecanol]: the Normal melting temperature amounted to 50 ± 0.5 °C. For the same compound, the Triple point temperature (Crystal 1) was 323.3 ± 0.87 K and 323 ± 0.9 K. In addition, the Triple point temperature (Crystal 2) is 322.3 ± 0.9 K and 322.2 ± 0.9 K.

For `CCCCCCCCCCCCCCCCCCO` [1-octadecanol], the Normal melting temperature amounted to 58.5 ± 0.5 °C. For the same compound, the Triple point temperature (Crystal 1) was determined as 331.6 ± 0.9 K. Besides, the Triple point temperature (Crystal 2) is 331 ± 0.9 K and 330.6 ± 0.9 K.

Consider `CCCCCCCCCCCCCCO` [1-tetradecanol], for which the Normal melting temperature was 38.2 ± 0.5 °C. The Triple point temperature (Crystal 1) was 311.2 ± 0.9 K and 311.4 ± 0.9 K. In addition, the Triple point temperature (Crystal 2) was 310.2 ± 0.9 K and 310.4 ± 0.9 K.

On to `CCCCCCCCCCO` [decan-1-ol], for which the Normal melting temperature was 7.5 ± 0.5 °C. Further, under “Crystal 1”, the Triple point temperature is 280.6 ± 0.9 K and 280.8 ± 0.9 K. Further, the Triple point temperature (Crystal 2) is 280.2 ± 0.9 K and 279.9 ± 0.9 K. Further, where the note is “Crystal 3”, the Triple point temperature is 276.2 ± 0.9 K and 277.5 ± 0.9 K.

With `CCCCCCCCCCCCO` [dodecan-1-ol], the Normal melting temperature is 24.7 ± 0.5 °C and 24.2 ± 0.5 °C. Besides, the Triple point temperature (Crystal 1) was 297.8 ± 0.9 K and 297.4 ± 0.9 K. Besides, the Triple point temperature (Crystal 2) turned out to be 296.4 ± 0.9 K.

Consider `CCCCCCCCO` [octan-1-ol], for which the Normal melting temperature is -14.4 ± 0.5 °C. Besides, the Triple point temperature (Crystal 1) is 258.7 ± 0.9 K and 258.3 ± 0.9 K. For the same compound, the Triple point temperature (Crystal 2) was 255 ± 0.5 K and 256 ± 0.9 K.
